Experimental data as given in paper PMC7534383, “Structure-activity relationship of 7-aryl-2-anilino-pyrrolopyrimidines as Mer and Axl tyrosine kinase inhibitors” (Journal of Enzyme Inhibition and Medicinal Chemistry, 2020).
Read-outs that look alike come from different tables or passages of the source.

Experiments:
Format in all cases: biochemical
TYRO3 = molecular target: T1, TYRO3 (Homo sapiens, UniProt Q06418); experiment: Kinase assay at Km ATP (Eurofins Discovery), Tyro3
T1 sequence (Q06418 41-890): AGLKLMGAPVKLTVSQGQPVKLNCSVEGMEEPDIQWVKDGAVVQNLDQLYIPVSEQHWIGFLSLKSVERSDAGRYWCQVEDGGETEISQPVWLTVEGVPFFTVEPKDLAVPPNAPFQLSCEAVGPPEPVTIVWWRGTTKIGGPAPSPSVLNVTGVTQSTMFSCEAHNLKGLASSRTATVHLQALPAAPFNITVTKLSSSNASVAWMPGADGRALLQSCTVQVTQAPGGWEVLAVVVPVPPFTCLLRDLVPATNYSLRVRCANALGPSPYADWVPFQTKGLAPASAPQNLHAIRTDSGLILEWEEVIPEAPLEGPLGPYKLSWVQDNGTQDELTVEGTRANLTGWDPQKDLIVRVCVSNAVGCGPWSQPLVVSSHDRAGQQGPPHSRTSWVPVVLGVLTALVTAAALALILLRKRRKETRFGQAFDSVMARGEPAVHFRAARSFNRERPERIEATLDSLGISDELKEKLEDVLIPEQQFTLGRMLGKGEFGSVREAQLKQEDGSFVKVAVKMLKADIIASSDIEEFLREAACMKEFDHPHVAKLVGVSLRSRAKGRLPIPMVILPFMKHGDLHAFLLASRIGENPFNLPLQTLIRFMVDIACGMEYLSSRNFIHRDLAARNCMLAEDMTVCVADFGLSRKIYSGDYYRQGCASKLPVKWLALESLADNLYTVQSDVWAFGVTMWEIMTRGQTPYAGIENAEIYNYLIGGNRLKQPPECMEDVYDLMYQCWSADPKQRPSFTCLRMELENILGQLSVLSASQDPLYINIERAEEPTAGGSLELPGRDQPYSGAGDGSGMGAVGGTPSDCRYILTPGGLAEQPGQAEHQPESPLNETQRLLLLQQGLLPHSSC
Description: (§1) All kinase assays were carried out at Km ATP by Eurofins Discovery's Kinase Screening and Profiling services (France).

MERTK = molecular target: T2, MERTK (Homo sapiens, UniProt Q12866); experiment: Kinase assay at Km ATP (Eurofins Discovery), Mer; conditions: for IC50: Km ATP
T2 sequence (Q12866 21-999): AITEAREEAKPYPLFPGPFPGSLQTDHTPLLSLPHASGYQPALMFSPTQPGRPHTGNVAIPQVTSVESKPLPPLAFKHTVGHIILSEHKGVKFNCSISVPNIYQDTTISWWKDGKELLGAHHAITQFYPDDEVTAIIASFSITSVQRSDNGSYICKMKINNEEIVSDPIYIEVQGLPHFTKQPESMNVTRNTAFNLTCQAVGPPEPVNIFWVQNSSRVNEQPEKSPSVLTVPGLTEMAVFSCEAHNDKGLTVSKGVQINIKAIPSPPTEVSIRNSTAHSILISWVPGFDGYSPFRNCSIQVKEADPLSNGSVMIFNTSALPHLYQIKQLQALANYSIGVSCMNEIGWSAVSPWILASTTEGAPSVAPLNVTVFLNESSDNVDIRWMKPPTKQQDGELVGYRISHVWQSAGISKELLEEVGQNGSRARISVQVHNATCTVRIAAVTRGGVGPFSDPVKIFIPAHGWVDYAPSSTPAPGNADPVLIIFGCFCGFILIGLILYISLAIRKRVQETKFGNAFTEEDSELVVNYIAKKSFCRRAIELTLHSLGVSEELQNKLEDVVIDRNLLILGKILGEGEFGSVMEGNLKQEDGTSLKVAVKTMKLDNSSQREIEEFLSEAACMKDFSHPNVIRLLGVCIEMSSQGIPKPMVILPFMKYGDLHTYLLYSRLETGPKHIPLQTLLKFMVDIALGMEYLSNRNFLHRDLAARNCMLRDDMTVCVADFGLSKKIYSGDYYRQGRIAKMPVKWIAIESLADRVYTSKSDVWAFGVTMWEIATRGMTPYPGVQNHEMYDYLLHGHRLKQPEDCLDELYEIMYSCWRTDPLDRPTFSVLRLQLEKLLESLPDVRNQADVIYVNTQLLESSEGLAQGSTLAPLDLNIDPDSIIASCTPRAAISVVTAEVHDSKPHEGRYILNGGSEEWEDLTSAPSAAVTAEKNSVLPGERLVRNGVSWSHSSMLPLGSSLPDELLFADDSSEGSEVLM
Description: as §1

AXL = molecular target: T3, AXL (Homo sapiens, UniProt P30530); experiment: Kinase assay at Km ATP (Eurofins Discovery), Axl; conditions: for IC50: Km ATP
T3 sequence (P30530 26-894): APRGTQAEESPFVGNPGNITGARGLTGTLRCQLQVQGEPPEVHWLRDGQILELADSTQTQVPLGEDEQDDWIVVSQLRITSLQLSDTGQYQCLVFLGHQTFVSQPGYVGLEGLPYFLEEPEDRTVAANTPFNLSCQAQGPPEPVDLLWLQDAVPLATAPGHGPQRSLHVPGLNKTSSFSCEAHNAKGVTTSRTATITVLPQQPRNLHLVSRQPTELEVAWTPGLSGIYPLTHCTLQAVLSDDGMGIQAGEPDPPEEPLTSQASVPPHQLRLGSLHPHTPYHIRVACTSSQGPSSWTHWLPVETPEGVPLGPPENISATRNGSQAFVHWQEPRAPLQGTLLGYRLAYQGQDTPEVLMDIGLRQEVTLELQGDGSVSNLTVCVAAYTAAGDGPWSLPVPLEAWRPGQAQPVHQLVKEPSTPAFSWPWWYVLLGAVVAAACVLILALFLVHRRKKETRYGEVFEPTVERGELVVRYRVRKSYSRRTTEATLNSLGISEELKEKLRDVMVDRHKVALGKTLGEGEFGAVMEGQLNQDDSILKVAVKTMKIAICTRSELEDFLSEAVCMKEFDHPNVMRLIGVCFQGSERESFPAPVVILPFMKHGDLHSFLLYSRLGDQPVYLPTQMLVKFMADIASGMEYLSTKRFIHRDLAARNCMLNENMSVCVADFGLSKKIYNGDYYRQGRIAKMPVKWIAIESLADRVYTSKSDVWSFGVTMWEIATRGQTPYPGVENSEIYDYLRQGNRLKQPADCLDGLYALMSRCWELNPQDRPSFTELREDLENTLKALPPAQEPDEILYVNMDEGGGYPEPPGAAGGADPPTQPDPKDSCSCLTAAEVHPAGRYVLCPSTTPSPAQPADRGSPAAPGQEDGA
Description: as §1

[1] = Table 1, mean values, read-out: IC50 (nM) MERTK
[2] = Table 2, read-out: IC50 (nM) MER

inhibition at 1 µM (TYRO3) | IC50 (MERTK; [1]) | IC50 (AXL; Table 1, mean values) | IC50 (MERTK; [2]) | fold decreased IC50 for Mer compared to 2 (MERTK; relative to compound 2) | IC50 (AXL; Table 2) | fold decreased IC50 for Axl compared to 2 (AXL; relative to compound 2) | Structure (SMILES)
38% | 39 nM | 1240 nM | – | – | – | – | COc1ccc(-n2ccc3cnc(Nc4cccc(OC)c4)nc32)cc1 [Compound 2, N-(3-Methoxyphenyl)-7–(4-methoxyphenyl)-7H-pyrrolo[2,3-d]pyrimidin-2-amine]
44% | 95 nM | 751 nM | – | – | – | – | COc1ccc(-n2ccc3cnc(Nc4ccccc4)nc32)cc1 [Compound 3, 7–(4-Methoxyphenyl)-N-phenyl-7H-pyrrolo[2,3-d]pyrimidin-2-amine]
12% | > 3000 nM | > 3000 nM | – | – | – | – | COc1ccc(-n2ccc3cnc(Nc4cccc(-c5ccccc5)c4)nc32)cc1 [Compound 4, N-([1,1′-Biphenyl]-3-yl)-7–(4-methoxyphenyl)-7H-pyrrolo[2,3-d]pyrimidin-2-amine]
27% | – | – | 15 nM | 2.6 fold | 104 nM | 12 fold | COc1ccc(-n2ccc3cnc(Nc4ccc(N5CCN(C)CC5)c(OC)c4)nc32)cc1 [Compound 16, N-(3-Methoxy-4–(4-methylpiperazin-1-yl)phenyl)-7–(4-methoxyphenyl)-7H-pyrrolo[2,3-d]pyrimidin-2-amine]
30% | – | – | 46 nM | – | 175 nM | – | COc1ccc(-n2ccc3cnc(Nc4ccc(N5CCC(N(C)C)C5)c(OC)c4)nc32)cc1 (stereo not shown) [Compound 18, N-(4–(3-(Dimethylamino)pyrrolidin-1-yl)-3-methoxyphenyl)-7–(4-methoxyphenyl)-7H-pyrrolo[2,3-d]pyrimidin-2-amine]

Second part, the compound before the results:

Structure (SMILES) | inhibition at 1 µM (TYRO3) | IC50 (MERTK; [1]) | IC50 (AXL; Table 1, mean values) | IC50 (MERTK; [2]) | fold decreased IC50 for Mer compared to 2 (MERTK; relative to compound 2) | IC50 (AXL; Table 2) | fold decreased IC50 for Axl compared to 2 (AXL; relative to compound 2)
COc1ccc(-n2ccc3cnc(N4CCN(C)CC4)nc32)cc1 [Compound 5, 7–(4-Methoxyphenyl)-2–(4-methylpiperazin-1-yl)-7H-pyrrolo[2,3-d]pyrimidine] | 0% | > 1000 nM | > 1000 nM | – | – | – | –
COc1ccc(-n2ccc3cnc(Nc4ccc(NC5CCN(C)CC5)c(OC)c4)nc32)cc1 [Compound 17, 2-Methoxy-N4-(7–(4-methoxyphenyl)-7H-pyrrolo[2,3-d]pyrimidin-2-yl)-N1-(1-methylpiperidin-4-yl)benzene-1,4-diamine] | 37% | – | – | 10 nM | – | 199 nM | –
COc1ccc(-n2ccc3cnc(Nc4cc(OC)cc(N5CCN(C)CC5)c4)nc32)cc1 [Compound 25, N-(3-Methoxy-5–(4-methylpiperazin-1-yl)phenyl)-7–(4-methoxyphenyl)-7H-pyrrolo[2,3-d]pyrimidin-2-amine] | 86% | – | – | 2 nM | – | 17 nM | –
COc1ccc(-n2ccc3cnc(Nc4cc(CN5CCN(C)CC5)cc(OC)c4)nc32)cc1 [Compound 26, N-(3-Methoxy-5-((4-methylpiperazin-1-yl)methyl)phenyl)-7–(4-methoxyphenyl)-7H-pyrrolo[2,3-d]pyrimidin-2-amine] | 92% | – | – | 4 nM | – | 18 nM | –
COc1ccc(-n2ccc3cnc(Nc4cc(OC)cc(N5CCC(C)(N6CCCC6)CC5)c4)nc32)cc1 [Compound 28, N-(3-Methoxy-5–(4-methyl-4-(pyrrolidin-1-yl)piperidin-1-yl)phenyl)-7–(4-methoxyphenyl)-7H-pyrrolo[2,3-d]pyrimidin-2-amine] | 72% | – | – | 7 nM | – | 32 nM | –
COc1ccc(-n2ccc3cnc(Nc4cc(OC)cc(N5CCCC(N6CCCC6)C5)c4)nc32)cc1 (stereo not shown) [Compound 29, N-(3-Methoxy-5–(3-(pyrrolidin-1-yl)piperidin-1-yl)phenyl)-7–(4-methoxyphenyl)-7H-pyrrolo[2,3-d]pyrimidin-2-amine] | 49% | – | – | 31 nM | – | 31 nM | –
COc1ccc(-n2ccc3cnc(Nc4cc(OC)cc(N5CCC6(CCCO6)CC5)c4)nc32)cc1 [Compound 32, N-(3-Methoxy-5–(1-oxa-8-azaspiro[4.5]decan-8-yl)phenyl)-7–(4-methoxyphenyl)-7H-pyrrolo[2,3-d]pyrimidin-2-amine] | 0% | – | – | – | – | 288 nM | –
